Experimental findings from ChEMBL document CHEMBL5154661, “Novel 2-phenyl-3-(Pyridin-2-yl) thiazolidin-4-one derivatives as potent inhibitors for proliferation of osteosarcoma cells in vitro and in vivo” (Eur J Med Chem, 2022) are described below.

The subject of data set [1] is HOS-TE85. Put plainly: Antiproliferative activity against human MNNG/HOS cells assessed as cell growth inhibition measured after 72 hrs by CCK-8 assay. It is filed as functional, cell-based. The settings on record: HOS-TE85, 72 h. (Tetrazolium assays rely on reduction of a dye to a coloured formazan, in cell work by metabolically active cells.)
A further data set concerns SJSA-1. Put plainly: Antiproliferative activity against human SJSA-1 assessed as cell growth inhibition at 1 uM measured after 72 hrs by CCK-8 assay relative to control. It is filed as functional.
Another data set relates to U2OS. Put plainly: Antiproliferative activity against human U2OS cells assessed as cell growth inhibition at 1 uM measured after 72 hrs by CCK-8 assay relative to control. It is filed as functional.
A further data set relates to HOS. Put plainly: Antiproliferative activity against human HOS cells assessed as cell growth inhibition at 1 uM measured after 72 hrs by CCK-8 assay relative to control. Type of data set: functional.
Data set [2] concerns HOS-TE85. Put plainly: Antiproliferative activity against human MNNG/HOS cells assessed as cell growth inhibition at 1 uM measured after 72 hrs by CCK-8 assay relative to control. It is filed as functional.
Another data set concerns MG-63. Nature of the data set: Antiproliferative activity against human MG-63 cells assessed as cell growth inhibition at 1 uM measured after 72 hrs by CCK-8 assay relative to control. It is filed as functional.
Another data set relates to 143B. Nature of the data set: Antiproliferative activity against human 143B cells assessed as cell growth inhibition at 1 uM measured after 72 hrs by CCK-8 assay relative to control. Type of data set: functional.
Data set [3] can be described thus: Microsomal stability in human liver microsomes assessed as intrinsic clearance at 0.1 uM incubated for 10 mins in presence of NADPH by LC-MS/MS analysis. It is filed as ADME, Microsome. (Liver microsomes are a subcellular fraction often used to study metabolism.)
Data set [4] can be described thus: Microsomal stability in rat liver microsomes assessed as intrinsic clearance at 0.1 uM incubated for 10 mins in presence of NADPH by LC-MS/MS analysis. Type of data set: ADME, Microsome.
A short description of data set [5]: Microsomal stability in mouse liver microsomes assessed as intrinsic clearance at 0.1 uM incubated for 10 mins in presence of NADPH by LC-MS/MS analysis. It is filed as ADME, Microsome.
A short description of data set [6]: Kinetic solubility of compound at pH 6.8 by turbidimetry method. It is filed as physicochemical. To be noted: buffer, read-out: Kinetic_solubility.
Data set [7] is described as follows: Kinetic solubility of compound at pH 7.4 by turbidimetry method. It is filed as physicochemical. To be noted: buffer, read-out: Kinetic_solubility.

≈ marks a conversion by molar mass, not a printed value. A value given as a limit tells only on which side of the number the result lay.

Consider `CCN1C(=O)CSC1c1cccc(C(=O)NCCCCc2ccccc2)c1` (stereo not drawn), for which the IC50 (commonly the concentration at which inhibition is half-maximal) in the data set with HOS-TE85 [1] is more than 1000 nM. Moreover, the inhibition (commonly the share of the control response that was lost under treatment) at 1 µM in the data set on SJSA-1 was 3%; in the data set on U2OS it was 13%; with HOS it was 6%; with HOS-TE85 [2], 0%; with MG-63, 0%; in the data set on 143B, 40%.

In the case of `COc1ccc(C)cc1N1C(=O)CSC1c1cccc(C(=O)NCCCCc2ccccc2)c1` (stereo not drawn), the IC50 with HOS-TE85 [1] was found to be 300 nM. In addition, the inhibition at 1 µM with SJSA-1 amounted to 79%; with U2OS, 30%; in the data set with HOS, 42%; in the data set with HOS-TE85 [2] it was 95%; in the data set with MG-63, 92%; with 143B it was 29%.

Consider `COc1cc(F)ccc1N1C(=O)CSC1c1cccc(C(=O)NCCCCc2ccccc2)c1` (stereo not drawn), for which the IC50 in the data set with HOS-TE85 [1] is 71.1 nM. Besides, the inhibition at 1 µM with SJSA-1 worked out at 77%; in the data set on U2OS it was 34%; in the data set with HOS, 81%; with HOS-TE85 [2] it was 94%; with MG-63 it was 92%; in the data set with 143B, 63%.

Regarding `COc1ccccc1N1C(=O)CSC1c1cc(F)cc(C(=O)O)c1` (stereo not drawn), the IC50 with HOS-TE85 [1] is more than 1000 nM. Besides, the inhibition at 1 µM in the data set on SJSA-1 worked out at 0%; in the data set on U2OS, 15%; with HOS, 8%; with HOS-TE85 [2], 0%; in the data set with MG-63 it was 0%; in the data set with 143B, 0%.

Turning to `O=C(NCCCCc1ccccc1)c1cccc(C2SCC(=O)N2c2ccccc2F)c1` (stereo not drawn), the IC50 in the data set on HOS-TE85 [1] was 34.1 nM. Besides, the “intrinsic clearance (CLint)” value in data set [3] was 1712 mL/min/g; in data set [4], 2946 mL/min/g; in data set [5] it was 2014 mL/min/g. In addition, the solubility kinetic in [6] worked out at 20 µM (≈ 8.97 µg/mL); in data set [7], 10 µM (≈ 4.49 µg/mL). For the same molecule, the inhibition at 1 µM stood at 80% in the data set on SJSA-1; 38% in the data set with U2OS; 83% in the data set with HOS; 95% with HOS-TE85 [2]; 92% in the data set on MG-63; 59% in the data set on 143B.

In the case of `CCOc1ccccc1N1C(=O)C(C)SC1c1cccc(C(=O)NCCCCc2ccccc2)c1` (stereo not drawn), the IC50 with HOS-TE85 [1] amounted to 71.6 nM. In addition, the inhibition at 1 µM in the data set with SJSA-1 came to 85%; in the data set with U2OS it was 37%; with HOS, 82%; in the data set on HOS-TE85 [2], 94%; with MG-63 it was 92%; in the data set with 143B, 53%.

Consider `O=C(NCCCCc1ccccc1)c1cccc(C2OCC(=O)N2c2cccc(F)c2)c1` (stereo not drawn), for which the IC50 with HOS-TE85 [1] amounted to 320 nM. For the same molecule, the inhibition at 1 µM in the data set with SJSA-1 came to 32%; in the data set on U2OS, 25%; in the data set with HOS, 29%; in the data set with HOS-TE85 [2], 87%; in the data set on MG-63, 66%; in the data set with 143B it was 0%.

`COc1ccccc1N1C(=O)CSC1C(=O)NCCCCc1ccccc1` (stereo not drawn): the IC50 with HOS-TE85 [1] is more than 1000 nM. The inhibition at 1 µM worked out at 14% in the data set on SJSA-1; 6% with U2OS; 0% in the data set on HOS; 0% with HOS-TE85 [2]; 60% with MG-63; 4% with 143B.

On to `O=C(NCCCCc1ccccc1)c1cccc(C2SCC(=O)N2c2ccccc2)c1` (stereo not drawn), for which the IC50 with HOS-TE85 [1] amounted to 15.9 nM. The inhibition at 1 µM is 73% in the data set on SJSA-1; 68% in the data set on U2OS; 55% with HOS; 96% with HOS-TE85 [2]; 89% with MG-63; 60% in the data set on 143B.

For the molecule `COc1c(F)cccc1N1C(=O)CSC1c1cccc(C(=O)NCCCCc2ccccc2)c1` (stereo not drawn), the IC50 in the data set on HOS-TE85 [1] was found to be 26.2 nM. The inhibition at 1 µM is 1% in the data set on SJSA-1; 12% in the data set on U2OS; 9% in the data set on HOS; 12% in the data set on HOS-TE85 [2]; 0% in the data set on MG-63; 5% in the data set on 143B.

Consider `COc1ccc(OC)c(N2C(=O)CSC2c2cccc(C(=O)NCCCCc3ccccc3)c2)c1` (stereo not drawn), for which the IC50 in the data set on HOS-TE85 [1] is more than 1000 nM. The inhibition at 1 µM with SJSA-1 stood at 48%; with U2OS it was 1%; with HOS, 5%; with HOS-TE85 [2], 20%; in the data set on MG-63, 92%; with 143B, 2%.

Take `COc1ccccc1N1C(=O)C(C)SC1c1cccc(C(=O)NCCCCc2ccccc2)c1` (stereo not drawn): in the data set with HOS-TE85 [1], the IC50 stood at 45.1 nM. The “intrinsic clearance (CLint)” value in [3] is 2657 mL/min/g; in data set [4] it was 2908 mL/min/g; in [5], 2948 mL/min/g. Further, the solubility kinetic was determined as 20 µM (≈ 9.49 µg/mL) in data set [6] and 10 µM (≈ 4.75 µg/mL) in data set [7]. Also, the inhibition at 1 µM in the data set on SJSA-1 turned out to be 84%; in the data set with U2OS, 38%; with HOS it was 82%; in the data set on HOS-TE85 [2], 95%; with MG-63, 94%; in the data set on 143B, 61%.

As for `CC(F)(F)c1cccc(N2C(=O)CSC2c2cccc(C(=O)NCCCCc3ccccc3)c2)c1` (stereo not drawn), the IC50 in the data set on HOS-TE85 [1] is 29.1 nM. Besides, the “intrinsic clearance (CLint)” value in data set [3] worked out at 1750 mL/min/g; in [4] it was 2323 mL/min/g; in data set [5], 2014 mL/min/g. The solubility kinetic in data set [6] is 10 µM (≈ 4.95 µg/mL); in data set [7], 2 µM (≈ 0.989 µg/mL). Moreover, the inhibition at 1 µM in the data set on SJSA-1 was 68%; with U2OS it was 24%; in the data set with HOS it was 23%; in the data set on HOS-TE85 [2], 93%; with MG-63, 92%; in the data set on 143B, 1%.

Take `O=C(NCCCCc1ccccc1)c1cccc(C2SCC(=O)N2c2cccc(F)c2)c1` (stereo not drawn): in the data set on HOS-TE85 [1], the IC50 is 32.4 nM. Moreover, the “intrinsic clearance (CLint)” value in data set [3] was 1844 mL/min/g; in [4], 3244 mL/min/g; in data set [5], 2737 mL/min/g. The solubility kinetic in data set [6] and in data set [7] was 10 µM (≈ 4.49 µg/mL) each time. Moreover, the inhibition at 1 µM in the data set with SJSA-1 came out at 80%; with U2OS it was 39%; in the data set with HOS, 84%; in the data set on HOS-TE85 [2], 94%; with MG-63, 92%; with 143B, 63%.

As to `COc1cccc(OC)c1N1C(=O)CSC1c1cccc(C(=O)NCCCCc2ccccc2)c1` (stereo not drawn), the IC50 in the data set on HOS-TE85 [1] was more than 1000 nM. Besides, the inhibition at 1 µM came to 72% in the data set with SJSA-1; 41% with U2OS; 80% in the data set on HOS; 95% in the data set with HOS-TE85 [2]; 80% with MG-63; 31% in the data set on 143B.

Regarding `COc1ccc(N2C(=O)CSC2c2cccc(C(=O)NCCCCc3ccccc3)c2)c(OC)c1` (stereo not drawn), in the data set with HOS-TE85 [1], the IC50 amounted to 90.4 nM. Also, the inhibition at 1 µM in the data set on SJSA-1 was found to be 85%; in the data set on U2OS, 37%; with HOS, 82%; in the data set on HOS-TE85 [2] it was 58%; in the data set with MG-63, 56%; in the data set on 143B it was 53%.

As for `C#Cc1cccc(N2C(=O)CSC2c2cccc(C(=O)NCCCCc3ccccc3)c2)c1` (stereo not drawn), the IC50 in the data set on HOS-TE85 [1] stood at 149 nM. Further, the “intrinsic clearance (CLint)” value came out at 751 mL/min/g in [3], 1818 mL/min/g in data set [4] and 1903 mL/min/g in [5]. Besides, the solubility kinetic in data set [6] and in [7] was 10 µM (≈ 4.55 µg/mL) throughout.
